Like-named read-outs stand apart in the source and are kept apart here.
What was measured:
[1] = tested on: P. falciparum Dd2 strain; assay: In vitro drug susceptibility assay on P. falciparum culture, clone Dd2; assay type: cell-based; conditions: Plasmodium falciparum, DD2, read-out: IC50 on P. falciparum Dd2 strain
[2] = tested on: P. falciparum (3D7 clone) segmented schizonts; assay: Merozoite egress/invasion, flow cytometry (YOYO-1) on segmented schizonts; assay type: cell-based, Plasmodium falciparum; conditions: 90 μM, 12 hr, serum-containing medium
Procedure: Next, the selected SUB1 inhibitors were evaluated biologically for their impact on P. falciparum 3D7 stage-specific ex vivo culture. […] In vitro synchronized culture of P. falciparum composed of 0.5% of segmented schizonts (To) was cultivated for 12 hr in serum-free medium in the absence (T12) or presence of DMSO (0.9% v/v) (lane DMSO). Lanes A/G1, A/G6, B/H5 correspond to parasites incubated with 90 μM of corresponding compounds. Lanes E64 and RBC correspond to parasites cultured in presence of E64 (10 μM) and uninfected erythrocytes respectively. Parasite extracts and culture supernatants were analyzed by western blot with mAb 24C6.1F1. […] Segmented schizonts (starting material, To) were cultivated for 12 hr in serum-containing medium and their transition to newly formed trophozoites-stages in presence of 0.9% DMSO (DMSO) was analysed by flow cytometry using YOYO1 Facs technique (Li et al, Cytometry, 71A, 297-307, 2007). […]
A synchronised culture composed of segmented schizonts of P. falciparum (3D7 clone) at 0.5% parasitemia and 1% hematocrit is performed in a 24 wells plate. […] The progress of the parasitaemia from segmented schizont to newly formed trophozoites was assessed by flow cytometry after staining samples by the DNA-binding fluorescent dye, YOYO-1™, as previously described by Li and colleagues [2007, Cytometry A 71: 297-307.] with some modifications. […]

[3] = target: recombinant PvSUB1 (Plasmodium vivax, UniProt E6Y8B9); assay: FRET-based PvSUB1 enzymatic assay, Ki determination; assay type: biochemical; conditions: Dabsyl Edans substrate; mean of at least three independent experiments ± SEM
Procedure: FIG. 2B depicts the FRET-based specific enzymatic assay which was used. In this particular case the assay consists in measuring fluorescence of tagged peptidic substrate of SUB1. An uncleaved peptide has low intensity emission whereas, when the peptide is cleaved by SUB1, high intensity emissions are measured. […] Molecules where thus tested and their Ki (inhibition constant) was determined on the PvSUB1 recombinant enzyme. FIG. 2C provides determination of the Ki of the AG6, AG1 and BH5 compounds for the recombinant PvSUB1 enzyme with the Dabsyl Edans substrate. Ten different concentrations, ranging from 300 μM to 585 nM following sequential 1:2 dilutions, of the compounds were tested using the PvSUB1 enzymatic assay. The final mixture was distributed in duplicate into a 384-well black microtiter plate (Thermo Scientific) and the fluorescence was monitored. The slope of the linear part of the kinetic was determined in an Excel™ (Microsoft) spreadsheet. The Ki and EC50 values expressed in μM were determined using GraphPad Prism™ software. […]
For the kinetic assays we used the recombinant PvSUB1/PfSUB1 enzymes and specific peptide substrates whose sequence are deduced from the auto-maturation site of each one: KLVGADDVSLA (SEQ ID NO: 9), which cleavage occurs between the two aspartates for PvSUB1 and KLVSADNIDIS (SEQ ID NO: 11) which is cleaved between the aspartate and the asparagine for PfSUB1. […] The final mixture was distributed in duplicate into a 384-well black microtiter plate (Thermo Scientific) and the fluorescence was monitored every 3 minutes for 90 min at 37° C. in a Labsystems Fluoroskan Ascent™ spectrofluorometer or a Tecan Infinite M1000™ spectrofluorometer using the excitation and emission wavelengths of […] or 620/680 nm for the Dabsyl/Edans or DYQ660/DY630 substrates respectively. The slope of the linear part of the kinetic was determined in an Excel™ (Microsoft) spreadsheet. Every steps of the enzymatic assay were done on ice to make sure that the protein was not active before the measure of the fluorescence. […]

[4] = tested on: P. falciparum 3D7 strain; assay: In vitro drug susceptibility assay on P. falciparum culture, clone 3D7; assay type: cell-based; conditions: Plasmodium falciparum
Procedure: FIG. 2B depicts the FRET-based specific enzymatic assay which was used. In this particular case the assay consists in measuring fluorescence of tagged peptidic substrate of SUB1. […] Molecules where thus tested and their Ki (inhibition constant) was determined on the PvSUB1 recombinant enzyme. FIG. 2C provides determination of the Ki of the AG6, AG1 and BH5 compounds for the recombinant PvSUB1 enzyme with the Dabsyl Edans substrate. […] The final mixture was distributed in duplicate into a 384-well black microtiter plate (Thermo Scientific) and the fluorescence was monitored. The slope of the linear part of the kinetic was determined in an Excel™ (Microsoft) spreadsheet. The Ki and EC50 values expressed in μM were determined using GraphPad Prism™ software.
Parasites were incubated at 37° C. in an atmosphere composed of 5% O2, 5% CO2 and 90% N2. […] IC50/EC50 have been determined following nonlinear regression analysis using HN-NonLin V1.1 software (malaria.farch.net).

[5] = tested on: SERA5 maturation by SUB1; assay: Inhibition of maturation of SERA5 (western blot) in synchronized P. falciparum culture; assay type: cell-based, Plasmodium falciparum; conditions: compounds 90 μM, E64 10 μM; 12 hr, serum-free medium; western blot mAb 24C6.1F1
Procedure: Next, the selected SUB1 inhibitors were evaluated biologically for their impact on P. falciparum 3D7 stage-specific ex vivo culture. […] In vitro synchronized culture of P. falciparum composed of 0.5% of segmented schizonts (To) was cultivated for 12 hr in serum-free medium in the absence (T12) or presence of DMSO (0.9% v/v) (lane DMSO). Lanes A/G1, A/G6, B/H5 correspond to parasites incubated with 90 μM of corresponding compounds. Lanes E64 and RBC correspond to parasites cultured in presence of E64 (10 μM) and uninfected erythrocytes respectively. Parasite extracts and culture supernatants were analyzed by western blot with mAb 24C6.1F1. SERA5 126 kDa precursor and its processed forms of 73, 56 and 50 kDa are indicated. […] Segmented schizonts (starting material, To) were cultivated for 12 hr in serum-containing medium and their transition to newly formed trophozoites-stages in presence of 0.9% DMSO (DMSO) was analysed by flow cytometry using YOYO1 Facs technique (Li et al, Cytometry, 71A, 297-307, 2007). Gates were selected to exclude uninfected erythrocytes and converted to two-dimensional plots illustrating the consequence of the presence of tested compounds on the arrest of schizogony. All compounds were tested at 90 μM, except E64 tested at 10 μM.

[6] = target: PfSUB1 Dabsyl Edans substrate (Plasmodium falciparum)
[7] = target: PvSUB1 Dabsyl Edans substrate (Plasmodium vivax)
[8] = chloroquino-sensitive clone 3D7, mean ± SEM, read-out: IC50 on P. falciparum 3D7 strain

| Compound | IC50 [1] | Ki [3] [µM] | IC50 [4, 8] [µM] | other results |
| --- | --- | --- | --- | --- |
| O=C(C[n+]1cccc(C(=O)Nc2ccccc2)c1)c1ccc(NC(=O)c2ccccc2)cc1 [A/G1] | 3.5 ± 1.7 µM | 5.5 ± 2.4 | 4.7 ± 1.8 | Arrest of schizogony / merozoite egress [2]: able to maintain the parasites to the schizonts stage |
| COc1cccc(C2c3c(-c4ccc(F)cc4)n[nH]c3C(=O)N2c2ccccc2)c1 (stereo not shown) [A/G6] | 14.8 ± 6.7 µM | 8.2 ± 1.9 | 17.7 ± 1.7 | Arrest of schizogony / merozoite egress [2]: able to maintain the parasites to the schizonts stage |
| O=C(Cn1ncc2c3ccccc3n(Cc3cccc(Cl)c3)c2c1=O)N1CCc2ccccc21 [B/H5] | 13 ± 8.1 µM | 1.4 ± 1 | 16.9 ± 3.3 | – |
| CC(C)C[C@H](NC(=O)[C@H]1O[C@@H]1C(=O)O)C(=O)NCCCCN=C(N)N [Compound E64] | – | – | – | Maturation of SERA5 by SUB1 successive cleavages [5]: inactive |
| CCN(CC)CCCC(C)Nc1ccnc2cc(Cl)ccc12 (stereo not shown) [chloroquine, reference compound] | 0.0355 ± 0.0137 µg/mL | – | – | IC50 ([4]; 3D7, read-out: IC50 on P. falciparum 3D7 strain): 4.3 ± 1.3 ng/mL |
| recombinant Plasmodium falciparum SUB1 (PfSUB1) (enzyme) | – | – | – | apparent Km, FRET-based cleavage assay [6]: 30.2 µM |
| recombinant enzymatically active form of Plasmodium vivax SUB1-Belem (PvSUB1-Belem) (enzyme) | – | – | – | apparent Km, FRET-based cleavage assay [7]: 19.7 µM |

Reference: patent publication US9404142B2, “Screening methods for identifying Plasmodium proteases inhibitors” (Institut Pasteur, priority 2010, dated 2016)
